The target in one assay is T1, mTOR (Homo sapiens, UniProt P42345).
T1 construct: endogenous in cells; host or cells: Jurkat (ATCC TIB-152, clone E6-1) and Ramos (ATCC CRL-1596), 1:1 lysate mix
The assay can be described thus: mTOR kinobeads assay (competition binding in cell lysate, dot blot detection). The settings on record: 1:1 mix of Jurkat and Ramos cell lysates, read-out: Inhibition values (IC50 in μM) as determined in the kinobeads assay, mTor. The gist of the method:
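Competition binding in a 1:1 mix of Jurkat and Ramos cell lysates at 5 mg/ml total protein, with compounds in a 1:3 dilution series and an affinity matrix of two immobilized ligands, 2 h in the cold with shaking. mTOR captured on the beads was eluted and quantified by antibody dot blot with infrared detection. IC50 came from dose-response curves.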

The target of another assay is T2, PI3Kγ (Homo sapiens, UniProt P48736).
T2 construct: endogenous in cells; host or cells: Jurkat (ATCC TIB-152, clone E6-1) and Ramos (ATCC CRL-1596), 1:1 lysate mix
The assay can be described thus: kinobeads assay, PI3Kγ. The following applies: 1:1 mix of Jurkat and Ramos cell lysates, read-out: Inhibition values (IC50 in μM) as determined in the kinobeads assay, PI3Kγ. The format is binding. The gist of the method: (§1)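 Competition binding in 1:1 Jurkat/Ramos cell lysate (5 mg/ml protein) with test compound and a 1:1 mix of phenylthiazole- and phenylmorpholin-chromen-ligand beads, 2 h in cold room with shaking. Bead-bound kinases were eluted, quantified by antibody dot blot with infrared detection, and IC50 derived from dose-response curves.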

The target of assay [1] is T3, DNA-dependent protein kinase (DNA-PK) (Homo sapiens, UniProt P78527).
T3 construct: endogenous in cells; host or cells: Jurkat (ATCC TIB-152, clone E6-1) and Ramos (ATCC CRL-1596), 1:1 lysate mix
T3 sequence (P78527 whole entry): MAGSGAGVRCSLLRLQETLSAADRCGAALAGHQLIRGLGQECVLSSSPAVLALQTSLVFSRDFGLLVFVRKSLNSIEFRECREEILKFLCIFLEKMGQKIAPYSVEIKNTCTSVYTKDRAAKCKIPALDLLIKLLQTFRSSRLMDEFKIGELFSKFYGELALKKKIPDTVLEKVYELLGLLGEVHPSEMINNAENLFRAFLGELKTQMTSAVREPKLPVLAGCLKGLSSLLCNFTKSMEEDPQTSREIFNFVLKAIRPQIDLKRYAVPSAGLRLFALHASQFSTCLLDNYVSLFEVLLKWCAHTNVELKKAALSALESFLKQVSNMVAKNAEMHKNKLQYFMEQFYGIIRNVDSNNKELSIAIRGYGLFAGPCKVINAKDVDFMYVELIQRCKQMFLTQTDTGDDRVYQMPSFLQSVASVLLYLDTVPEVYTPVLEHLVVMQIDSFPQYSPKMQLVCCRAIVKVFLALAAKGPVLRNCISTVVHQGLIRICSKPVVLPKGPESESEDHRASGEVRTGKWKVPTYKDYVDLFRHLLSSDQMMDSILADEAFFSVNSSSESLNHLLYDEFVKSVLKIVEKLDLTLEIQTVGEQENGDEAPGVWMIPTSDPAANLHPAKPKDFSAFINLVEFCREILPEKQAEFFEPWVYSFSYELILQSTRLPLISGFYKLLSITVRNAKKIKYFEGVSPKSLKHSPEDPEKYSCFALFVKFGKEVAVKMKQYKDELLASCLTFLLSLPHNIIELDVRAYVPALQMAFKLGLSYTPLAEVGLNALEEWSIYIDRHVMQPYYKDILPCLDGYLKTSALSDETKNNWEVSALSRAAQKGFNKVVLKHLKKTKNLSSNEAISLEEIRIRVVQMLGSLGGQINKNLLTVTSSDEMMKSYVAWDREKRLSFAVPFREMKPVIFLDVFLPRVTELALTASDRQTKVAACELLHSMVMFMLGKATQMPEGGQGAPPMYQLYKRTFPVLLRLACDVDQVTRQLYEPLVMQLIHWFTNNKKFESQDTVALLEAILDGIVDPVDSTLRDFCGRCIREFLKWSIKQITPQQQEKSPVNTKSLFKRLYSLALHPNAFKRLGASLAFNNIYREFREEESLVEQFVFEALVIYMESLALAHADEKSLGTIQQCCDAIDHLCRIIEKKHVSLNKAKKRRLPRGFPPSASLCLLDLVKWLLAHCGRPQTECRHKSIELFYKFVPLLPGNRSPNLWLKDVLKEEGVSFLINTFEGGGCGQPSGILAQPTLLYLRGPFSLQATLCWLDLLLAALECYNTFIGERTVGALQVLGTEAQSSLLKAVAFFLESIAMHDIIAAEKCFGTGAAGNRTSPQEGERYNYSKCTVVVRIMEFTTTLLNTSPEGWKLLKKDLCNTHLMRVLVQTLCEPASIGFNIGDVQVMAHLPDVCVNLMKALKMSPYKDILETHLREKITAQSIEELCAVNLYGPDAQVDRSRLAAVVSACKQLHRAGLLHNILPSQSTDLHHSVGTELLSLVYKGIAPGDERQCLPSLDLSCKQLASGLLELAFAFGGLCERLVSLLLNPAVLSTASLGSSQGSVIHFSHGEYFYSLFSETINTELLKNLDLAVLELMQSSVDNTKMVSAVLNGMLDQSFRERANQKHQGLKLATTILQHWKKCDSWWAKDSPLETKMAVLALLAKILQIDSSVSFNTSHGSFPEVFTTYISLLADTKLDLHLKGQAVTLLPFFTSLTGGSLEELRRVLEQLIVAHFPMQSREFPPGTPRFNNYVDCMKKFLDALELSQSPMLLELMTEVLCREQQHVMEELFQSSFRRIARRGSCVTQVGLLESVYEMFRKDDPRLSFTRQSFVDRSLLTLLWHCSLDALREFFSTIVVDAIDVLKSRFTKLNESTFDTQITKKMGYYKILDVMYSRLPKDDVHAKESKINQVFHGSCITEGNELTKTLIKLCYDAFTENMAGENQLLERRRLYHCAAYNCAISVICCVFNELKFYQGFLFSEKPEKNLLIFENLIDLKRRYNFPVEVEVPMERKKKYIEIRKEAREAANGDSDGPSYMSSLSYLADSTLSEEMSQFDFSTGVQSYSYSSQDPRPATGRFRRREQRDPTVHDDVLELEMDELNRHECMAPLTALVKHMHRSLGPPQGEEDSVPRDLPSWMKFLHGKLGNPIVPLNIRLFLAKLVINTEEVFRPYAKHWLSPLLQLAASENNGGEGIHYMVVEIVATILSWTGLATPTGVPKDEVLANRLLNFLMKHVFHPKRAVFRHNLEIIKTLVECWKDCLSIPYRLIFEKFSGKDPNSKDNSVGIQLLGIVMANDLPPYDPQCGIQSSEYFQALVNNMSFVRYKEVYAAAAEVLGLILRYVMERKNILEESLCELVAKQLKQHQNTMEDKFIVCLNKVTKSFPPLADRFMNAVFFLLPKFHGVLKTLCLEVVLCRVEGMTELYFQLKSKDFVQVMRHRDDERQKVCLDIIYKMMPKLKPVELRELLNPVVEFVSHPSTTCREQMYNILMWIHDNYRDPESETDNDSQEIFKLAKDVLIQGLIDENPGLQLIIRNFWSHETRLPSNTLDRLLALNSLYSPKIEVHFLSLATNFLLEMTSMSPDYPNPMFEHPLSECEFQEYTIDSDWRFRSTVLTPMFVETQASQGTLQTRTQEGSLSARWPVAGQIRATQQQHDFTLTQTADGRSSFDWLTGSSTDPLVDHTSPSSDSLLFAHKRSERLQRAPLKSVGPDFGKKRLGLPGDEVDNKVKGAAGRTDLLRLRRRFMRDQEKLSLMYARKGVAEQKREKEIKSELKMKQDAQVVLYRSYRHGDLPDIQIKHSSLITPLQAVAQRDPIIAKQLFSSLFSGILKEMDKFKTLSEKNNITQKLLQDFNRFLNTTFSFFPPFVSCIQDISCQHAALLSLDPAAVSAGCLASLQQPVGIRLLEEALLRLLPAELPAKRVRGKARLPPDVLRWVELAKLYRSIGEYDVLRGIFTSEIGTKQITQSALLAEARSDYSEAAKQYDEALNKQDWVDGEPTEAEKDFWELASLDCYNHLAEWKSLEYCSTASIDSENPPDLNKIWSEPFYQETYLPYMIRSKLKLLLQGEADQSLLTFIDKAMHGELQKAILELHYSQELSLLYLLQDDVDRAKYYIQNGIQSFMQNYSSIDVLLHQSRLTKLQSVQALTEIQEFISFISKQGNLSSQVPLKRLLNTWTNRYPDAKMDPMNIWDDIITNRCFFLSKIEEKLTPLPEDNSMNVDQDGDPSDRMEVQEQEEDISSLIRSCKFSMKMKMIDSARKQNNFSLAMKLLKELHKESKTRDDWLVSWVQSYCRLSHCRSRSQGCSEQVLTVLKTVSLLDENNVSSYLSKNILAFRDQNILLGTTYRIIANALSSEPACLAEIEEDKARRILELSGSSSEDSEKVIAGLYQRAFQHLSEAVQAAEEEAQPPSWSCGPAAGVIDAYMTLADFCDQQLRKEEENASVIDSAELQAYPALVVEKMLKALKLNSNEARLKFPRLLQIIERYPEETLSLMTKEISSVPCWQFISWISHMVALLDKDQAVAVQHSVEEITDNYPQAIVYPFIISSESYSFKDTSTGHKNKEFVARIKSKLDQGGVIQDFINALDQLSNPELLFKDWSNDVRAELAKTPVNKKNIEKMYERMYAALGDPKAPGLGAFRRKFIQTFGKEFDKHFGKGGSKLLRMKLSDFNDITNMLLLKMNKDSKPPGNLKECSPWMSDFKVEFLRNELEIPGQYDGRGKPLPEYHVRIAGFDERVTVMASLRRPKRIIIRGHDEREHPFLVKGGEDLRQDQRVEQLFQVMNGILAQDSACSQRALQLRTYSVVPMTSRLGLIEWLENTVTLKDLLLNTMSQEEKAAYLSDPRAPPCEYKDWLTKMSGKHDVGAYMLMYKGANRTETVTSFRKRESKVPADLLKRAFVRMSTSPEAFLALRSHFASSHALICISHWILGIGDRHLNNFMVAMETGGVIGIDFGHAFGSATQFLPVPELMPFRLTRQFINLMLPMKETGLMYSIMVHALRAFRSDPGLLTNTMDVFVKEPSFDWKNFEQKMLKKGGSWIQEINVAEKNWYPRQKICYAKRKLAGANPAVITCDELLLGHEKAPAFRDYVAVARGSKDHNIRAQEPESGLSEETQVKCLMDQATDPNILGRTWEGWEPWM
The experiment in a line: kinobeads assay, DNA-PK. The settings on record: 1:1 mix of Jurkat and Ramos cell lysates, read-out: Inhibition values (IC50 in μM) as determined in the kinobeads assay, DNA-PK. The format is binding. The gist of the method:
as §1

Another assay has as its target T4, PI3Kβ (Homo sapiens, UniProt P42338).
T4 construct: endogenous in cells; host or cells: Jurkat (ATCC TIB-152, clone E6-1) and Ramos (ATCC CRL-1596), 1:1 lysate mix
The assay can be described thus: kinobeads assay, PI3Kβ. The assay is classed as binding. The following applies: 1:1 mix of Jurkat and Ramos cell lysates, read-out: Inhibition values (IC50 in μM) as determined in the kinobeads assay, PI3Kβ. An outline of the steps:
as §1

Another assay concerns the target T5, PI3Kα (Homo sapiens, UniProt P42336).
T5 construct: endogenous in cells; host or cells: Jurkat (ATCC TIB-152, clone E6-1) and Ramos (ATCC CRL-1596), 1:1 lysate mix
The experiment in a line: kinobeads assay, PI3Kα. The format is binding. The settings on record: 1:1 mix of Jurkat and Ramos cell lysates, read-out: Inhibition values (IC50 in μM) as determined in the kinobeads assay, PI3Kα. An outline of the steps: as §1

Another assay addresses T6, PI3Kδ (Homo sapiens, UniProt O00329).
T6 construct: endogenous in cells; host or cells: Jurkat (ATCC TIB-152, clone E6-1) and Ramos (ATCC CRL-1596), 1:1 lysate mix
The assay can be described thus: kinobeads assay, PI3Kδ. The format is binding. The settings on record: 1:1 mix of Jurkat and Ramos cell lysates, read-out: Inhibition values (IC50 in μM) as determined in the kinobeads assay, PI3Kδ. An outline of the steps: as §1

As a reminder, the IC50 is the concentration at which inhibition is half-maximal. With `CC(CO)NC(=O)Nc1ccc(-c2nc(N3CCOC[C@@H]3C)nc3c2CN(C(C)C)C3)cc1` (stereo partly drawn) [Example 51, 1-(1-hydroxypropan-2-yl)-3-(4-(6-isopropyl-2-((S)-3-methylmorpholino)-6,7-dihydro-5H-pyrrolo[3,4-d]pyrimidin-4-yl)phenyl)urea 2,2,2-trifluoroacetate], the 50% inhibitory concentration (IC50) was 1 to 10 µM on mTOR; greater than 100 µM at PI3Kγ; greater than 100 µM in assay [1]; greater than 100 µM on PI3Kβ; greater than 100 µM at PI3Kα; greater than 100 µM on PI3Kδ.

On to `CC(C)N1Cc2nc(N3CCOC[C@@H]3C)nc(-c3ccc(NC(=O)NCCC#N)cc3)c2C1` [Example 52, (S)-1-(2-cyanoethyl)-3-(4-(6-isopropyl-2-(3-methylmorpholino)-6,7-dihydro-5H-pyrrolo[3,4-d]pyrimidin-4-yl)phenyl)urea 2,2,2-trifluoroacetate], for which the 50% inhibitory concentration (IC50) was 1 to 10 µM on mTOR; greater than 100 µM on PI3Kγ; greater than 100 µM in assay [1]; greater than 100 µM at PI3Kβ; greater than 100 µM on PI3Kα; greater than 100 µM at PI3Kδ.

These data come from US20140163023A1, “DIHYDROPYRROLO PYRIMIDINE DERIVATIVES AS MTOR INHIBITORS” (Cellzome Limited, priority 2011, published 2014).
